From ChEMBL document CHEMBL5678795 (Eur J Pharmacol, 1999)
The source made the active and inactive calls. No cut-off for these calls is given here.

Tests used:
[1] = biological target: Melatonin receptor type 1A (Homo sapiens) (UniProt P48039); experiment: Displacement of [125I]2-iodomelatonin from human recombinant melatonin ML1 receptor at 10 uM incubated for 240 mins by radiometric based scintillation counter assay relative to control
[2] = biological target: T1, Endothelin-1 receptor (Rattus norvegicus) (UniProt P26684); experiment: In vivo antagonist activity to ETA receptor in endothelin-1 induced Sprague-Dawley rat assessed as inhibition of transient depressor response at 10 to 30 mg/kg, po administered for 4 hrs; format: functional, organism-based; settings: dose 10-30 mg/kg
T1 sequence (whole entry): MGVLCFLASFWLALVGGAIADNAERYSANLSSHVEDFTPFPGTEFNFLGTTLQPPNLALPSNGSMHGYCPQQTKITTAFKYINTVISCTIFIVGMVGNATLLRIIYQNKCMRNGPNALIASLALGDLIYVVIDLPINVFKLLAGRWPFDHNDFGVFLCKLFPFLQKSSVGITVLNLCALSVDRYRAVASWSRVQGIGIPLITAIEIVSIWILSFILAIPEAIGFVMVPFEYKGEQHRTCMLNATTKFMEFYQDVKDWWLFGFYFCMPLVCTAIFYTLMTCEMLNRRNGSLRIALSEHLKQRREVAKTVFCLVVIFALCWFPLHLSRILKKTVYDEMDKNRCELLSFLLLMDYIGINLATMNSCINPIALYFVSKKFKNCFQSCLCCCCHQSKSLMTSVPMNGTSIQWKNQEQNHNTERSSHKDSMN

[3] = biological target: D(1A) dopamine receptor (Homo sapiens) (UniProt P21728); experiment: Displacement of [3H]SCH 23390 from human recombinant dopamine D1 receptor at 10 uM incubated for 60 mins by radiometric based scintillation counter assay relative to control
[4] = biological target: Type-1 angiotensin II receptor (Homo sapiens) (UniProt P30556); experiment: Displacement of [125I][Sar1,Ile8]-AT-II from human recombinant angiotensin AT1 receptor at 10 uM incubated for 120 mins by radiometric based scintillation counter assay relative to control
[5] = biological target: T2, Endothelin-1 receptor (Homo sapiens) (UniProt P25101); experiment: Antagonist activity at ETA receptor in human Pericardial smooth muscle cell assessed as inhibition of […] in presence of myo-[3H] inositol by anion exchange chromatography; format: functional, cell-based
T2 sequence (whole entry): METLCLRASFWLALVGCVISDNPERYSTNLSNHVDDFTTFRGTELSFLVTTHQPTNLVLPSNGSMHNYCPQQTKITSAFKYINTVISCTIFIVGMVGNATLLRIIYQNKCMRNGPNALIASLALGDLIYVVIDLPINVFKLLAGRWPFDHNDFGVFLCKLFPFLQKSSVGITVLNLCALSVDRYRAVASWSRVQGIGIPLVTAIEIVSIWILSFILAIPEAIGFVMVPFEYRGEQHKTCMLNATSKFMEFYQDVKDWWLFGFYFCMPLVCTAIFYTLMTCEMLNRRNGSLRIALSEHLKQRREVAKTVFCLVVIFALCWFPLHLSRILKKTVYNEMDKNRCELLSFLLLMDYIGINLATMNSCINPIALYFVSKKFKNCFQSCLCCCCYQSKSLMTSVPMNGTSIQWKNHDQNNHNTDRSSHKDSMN

[6] = biological target: Endothelin receptor type B (Oryctolagus cuniculus, UniProt Q9N0W7); experiment: Antagonist activity to ETB receptor in sarafotoxin-6c stimulated rabbit pulmonary artery assessed as induction of vessel ring contraction preincubated for 15 mins; format: functional, tissue-based; settings: read-out: pA2 (converted)
[7] = biological target: Muscarinic acetylcholine receptor M3 (Homo sapiens) (UniProt P20309); experiment: Displacement of [3H]4-DAMP from human recombinant muscarinic M3 receptor at 10 uM incubated for 60 mins by radiometric based scintillation counter assay relative to control
[8] = biological target: Adenosine receptor A1 (Homo sapiens) (UniProt P30542); experiment: Displacement of [3H]DPCPX from human recombinant Adenosine A1 receptor at 10 uM incubated for 60 mins by radiometric based scintillation counter assay relative to control
[9] = biological target: Translocator protein (Homo sapiens) (UniProt P30536); experiment: Displacement of [3H] PK 11195 from peripheral-type benzodiazepine (unknown origin) at 10 uM incubated for 15 mins by radiometric based scintillation counter assay relative to control
[10] = biological target: Bombesin receptor (Rattus norvegicus) (UniProt P52500+P24053+Q8K418); experiment: Displacement of [125I][Tyr4]bombesin from rat brain Bombesin receptor at 10 uM incubated for 60 mins by radiometric based scintillation counter assay relative to control; format: tissue-based
[11] = Oral bioavailability in Beagle dog at 5 mg/kg administered for 12 hrs by HPLC analysis; format: ADME, organism-based, Canis lupus familiaris; settings: in vivo
[12] = biological target: D(4) dopamine receptor (Homo sapiens) (UniProt P21917); experiment: Displacement of [3H]methyl-spiperone from human recombinant dopamine D4 receptor at 10 uM incubated for 60 mins by radiometric based scintillation counter assay relative to control
[13] = biological target: 5-hydroxytryptamine receptor 2A (Homo sapiens) (UniProt P28223); experiment: Displacement of [3H]ketanserin from human recombinant 5-Hydroxytryptamine 2A at 10 uM incubated for 60 mins by radiometric based scintillation counter assay relative to control
Homo sapiens = organism: Homo sapiens; experiment: Inhibition of L-type Ca2+ channel (unknown origin) at 10 uM by radioligand binding assay relative to control
[14] = biological target: 5-hydroxytryptamine receptor 2C (Homo sapiens) (UniProt P28335); experiment: Displacement of [3H]mesulergine from human recombinant 5-Hydroxytryptamine 2C at 10 uM incubated for 120 mins by radiometric based scintillation counter assay relative to control
[15] = test system: P2Y purinergic receptor (Rattus norvegicus); experiment: Displacement of [35S]dATPalpha S from rat brain P2Y-purinergic receptor at 10 uM incubated for 60 mins by radiometric based scintillation counter assay relative to control
[16] = biological target: 5-hydroxytryptamine receptor 6 (Homo sapiens) (UniProt P50406); experiment: Displacement of [3H]LSD from human recombinant 5-Hydroxytryptamine 6 at 10 uM incubated for 120 mins by radiometric based scintillation counter assay relative to control
[17] = biological target: T1, Endothelin-1 receptor (Rattus norvegicus); experiment: In vivo antagonist activity to ETA receptor in endothelin-1 induced Sprague-Dawley rat assessed as inhibition of transient depressor response at 100 mg/kg, po administered for 4 hrs; format: functional, organism-based
[18] = biological target: T1, Endothelin-1 receptor (Rattus norvegicus); experiment: Antagonist activity at ETA receptor in rat MMQ cells assessed as inhibition of phosphatidylinositol hydrolysis in presence of myo-[3H] inositol by anion exchange chromatography; format: functional, cell-based
Rattus norvegicus = organism: Rattus norvegicus; experiment: Displacement of [3H]RX 821002 from rat brain […] at 10 uM incubated for 60 mins by radiometric based scintillation counter assay relative to control; format: tissue-based
[19] = biological target: Mu-type opioid receptor (Homo sapiens) (UniProt P35372); experiment: Displacement of [3H]DAMGO from human recombinant mu-Opioid receptor at 10 uM incubated for 120 mins by radiometric based scintillation counter assay relative to control
[20] = biological target: Cannabinoid receptor 1 (Homo sapiens) (UniProt P21554); experiment: Displacement of [3H]CP 55940 from human recombinant cannabinoid CB1 receptor at 10 uM incubated for 30 mins by radiometric based scintillation counter assay relative to control

Chain of 5-hydroxytryptamine receptor 6 (Homo sapiens) (P50406 whole entry): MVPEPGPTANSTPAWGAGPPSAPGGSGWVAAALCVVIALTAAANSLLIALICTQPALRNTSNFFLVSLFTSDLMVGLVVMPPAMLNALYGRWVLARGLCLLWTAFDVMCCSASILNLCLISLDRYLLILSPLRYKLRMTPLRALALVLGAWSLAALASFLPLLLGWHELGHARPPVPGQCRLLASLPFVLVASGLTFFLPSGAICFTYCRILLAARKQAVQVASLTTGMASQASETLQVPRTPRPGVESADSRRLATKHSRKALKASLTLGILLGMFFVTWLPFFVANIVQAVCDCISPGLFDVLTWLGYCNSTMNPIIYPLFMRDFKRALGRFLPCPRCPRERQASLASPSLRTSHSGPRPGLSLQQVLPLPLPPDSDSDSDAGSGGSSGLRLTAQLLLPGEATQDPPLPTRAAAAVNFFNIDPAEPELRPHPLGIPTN
Chain of Translocator protein (Homo sapiens) (P30536 whole entry): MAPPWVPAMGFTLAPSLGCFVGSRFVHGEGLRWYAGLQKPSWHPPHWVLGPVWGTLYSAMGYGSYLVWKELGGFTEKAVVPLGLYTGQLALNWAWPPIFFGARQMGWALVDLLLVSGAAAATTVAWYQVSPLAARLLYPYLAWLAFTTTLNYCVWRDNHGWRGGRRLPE
Chain of D(4) dopamine receptor (Homo sapiens) (P21917 whole entry): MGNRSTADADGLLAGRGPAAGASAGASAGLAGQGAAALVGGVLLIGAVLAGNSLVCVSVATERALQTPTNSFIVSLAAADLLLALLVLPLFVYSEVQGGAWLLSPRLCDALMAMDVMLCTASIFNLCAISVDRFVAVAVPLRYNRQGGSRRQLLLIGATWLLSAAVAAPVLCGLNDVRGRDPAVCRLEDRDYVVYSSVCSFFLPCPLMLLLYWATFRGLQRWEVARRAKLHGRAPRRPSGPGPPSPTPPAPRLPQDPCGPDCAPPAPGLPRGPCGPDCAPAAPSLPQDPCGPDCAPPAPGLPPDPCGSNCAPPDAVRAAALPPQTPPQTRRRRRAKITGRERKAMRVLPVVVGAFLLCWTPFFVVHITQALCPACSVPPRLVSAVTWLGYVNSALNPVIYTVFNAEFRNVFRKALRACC
Chain of Adenosine receptor A1 (Homo sapiens) (P30542 whole entry): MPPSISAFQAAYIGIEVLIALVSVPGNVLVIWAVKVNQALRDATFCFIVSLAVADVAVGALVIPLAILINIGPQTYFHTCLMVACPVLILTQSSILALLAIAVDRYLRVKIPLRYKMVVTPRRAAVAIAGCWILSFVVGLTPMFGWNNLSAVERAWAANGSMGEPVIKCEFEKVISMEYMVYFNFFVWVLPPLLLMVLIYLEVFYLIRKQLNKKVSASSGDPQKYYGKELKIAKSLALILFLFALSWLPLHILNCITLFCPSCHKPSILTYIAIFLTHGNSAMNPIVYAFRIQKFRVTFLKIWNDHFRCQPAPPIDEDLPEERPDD
Chain of 5-hydroxytryptamine receptor 2C (Homo sapiens) (P28335 whole entry): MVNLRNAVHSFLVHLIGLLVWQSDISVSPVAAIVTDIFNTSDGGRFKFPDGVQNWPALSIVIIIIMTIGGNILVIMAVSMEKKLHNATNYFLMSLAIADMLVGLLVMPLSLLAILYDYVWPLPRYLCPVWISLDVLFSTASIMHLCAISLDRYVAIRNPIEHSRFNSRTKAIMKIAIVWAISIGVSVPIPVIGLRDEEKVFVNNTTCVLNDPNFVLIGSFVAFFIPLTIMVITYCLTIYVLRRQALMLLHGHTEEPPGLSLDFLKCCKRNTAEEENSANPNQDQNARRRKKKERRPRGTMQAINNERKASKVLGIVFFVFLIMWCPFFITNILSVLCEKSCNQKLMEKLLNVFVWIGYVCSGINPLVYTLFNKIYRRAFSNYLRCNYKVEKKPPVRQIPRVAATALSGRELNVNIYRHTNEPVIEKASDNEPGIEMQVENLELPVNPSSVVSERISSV
Chain of 5-hydroxytryptamine receptor 2A (Homo sapiens) (P28223 whole entry): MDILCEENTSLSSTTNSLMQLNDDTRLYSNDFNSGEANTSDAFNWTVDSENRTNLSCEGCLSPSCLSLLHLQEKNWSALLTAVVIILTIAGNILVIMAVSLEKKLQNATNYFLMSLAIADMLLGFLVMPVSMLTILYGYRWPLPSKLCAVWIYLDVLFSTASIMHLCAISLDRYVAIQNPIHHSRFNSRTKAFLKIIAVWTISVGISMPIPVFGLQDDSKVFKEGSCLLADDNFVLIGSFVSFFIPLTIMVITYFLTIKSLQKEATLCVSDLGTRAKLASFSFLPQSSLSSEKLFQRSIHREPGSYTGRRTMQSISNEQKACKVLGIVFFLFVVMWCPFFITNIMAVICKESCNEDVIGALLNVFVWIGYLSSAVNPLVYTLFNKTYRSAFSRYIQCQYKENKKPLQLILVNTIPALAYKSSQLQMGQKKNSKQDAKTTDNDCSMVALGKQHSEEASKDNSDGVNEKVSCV
Chain of Bombesin receptor (Rattus norvegicus) (P24053 whole entry, looked up): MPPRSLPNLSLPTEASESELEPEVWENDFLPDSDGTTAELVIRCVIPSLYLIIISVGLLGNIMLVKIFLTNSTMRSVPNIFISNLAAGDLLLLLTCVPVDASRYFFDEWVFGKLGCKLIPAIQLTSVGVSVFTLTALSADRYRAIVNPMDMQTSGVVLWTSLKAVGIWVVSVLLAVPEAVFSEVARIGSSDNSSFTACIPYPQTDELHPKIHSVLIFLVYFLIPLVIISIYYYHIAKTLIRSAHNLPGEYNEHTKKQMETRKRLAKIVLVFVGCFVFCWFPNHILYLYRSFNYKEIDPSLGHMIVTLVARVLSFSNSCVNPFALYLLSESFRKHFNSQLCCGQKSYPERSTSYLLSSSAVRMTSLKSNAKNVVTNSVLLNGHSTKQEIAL
Chain of Bombesin receptor (Rattus norvegicus) (P52500 whole entry, looked up): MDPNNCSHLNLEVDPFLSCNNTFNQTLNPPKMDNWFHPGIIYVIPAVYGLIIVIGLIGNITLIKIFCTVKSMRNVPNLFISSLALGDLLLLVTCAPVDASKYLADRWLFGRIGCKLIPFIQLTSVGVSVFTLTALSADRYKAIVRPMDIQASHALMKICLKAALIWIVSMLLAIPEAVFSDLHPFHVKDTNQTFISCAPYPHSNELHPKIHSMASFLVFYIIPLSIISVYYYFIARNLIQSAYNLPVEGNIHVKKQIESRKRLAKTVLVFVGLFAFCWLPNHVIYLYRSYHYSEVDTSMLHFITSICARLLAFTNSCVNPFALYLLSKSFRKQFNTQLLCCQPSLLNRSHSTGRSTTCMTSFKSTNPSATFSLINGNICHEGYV
Chain of Bombesin receptor (Rattus norvegicus) (Q8K418 whole entry, looked up): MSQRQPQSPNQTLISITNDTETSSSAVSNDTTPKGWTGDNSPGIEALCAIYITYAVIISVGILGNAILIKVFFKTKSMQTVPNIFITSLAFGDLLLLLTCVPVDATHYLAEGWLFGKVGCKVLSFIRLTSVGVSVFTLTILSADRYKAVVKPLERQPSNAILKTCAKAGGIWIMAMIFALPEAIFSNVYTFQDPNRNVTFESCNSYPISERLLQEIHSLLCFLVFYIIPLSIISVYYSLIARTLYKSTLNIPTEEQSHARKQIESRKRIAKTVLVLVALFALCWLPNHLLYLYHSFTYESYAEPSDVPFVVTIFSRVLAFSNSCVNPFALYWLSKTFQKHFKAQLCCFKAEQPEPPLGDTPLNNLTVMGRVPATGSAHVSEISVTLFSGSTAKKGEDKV
Chain of Melatonin receptor type 1A (Homo sapiens) (P48039 whole entry): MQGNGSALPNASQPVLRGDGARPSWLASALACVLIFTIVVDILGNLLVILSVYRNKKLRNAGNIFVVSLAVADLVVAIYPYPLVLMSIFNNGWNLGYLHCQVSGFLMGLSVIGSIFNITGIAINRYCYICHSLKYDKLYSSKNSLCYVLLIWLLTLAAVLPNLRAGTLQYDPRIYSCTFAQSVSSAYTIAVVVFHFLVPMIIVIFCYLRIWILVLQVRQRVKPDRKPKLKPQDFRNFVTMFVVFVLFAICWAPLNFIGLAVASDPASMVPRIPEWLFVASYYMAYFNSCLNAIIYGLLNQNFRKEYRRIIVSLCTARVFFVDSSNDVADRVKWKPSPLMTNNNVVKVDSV
Chain of Mu-type opioid receptor (Homo sapiens) (P35372 whole entry): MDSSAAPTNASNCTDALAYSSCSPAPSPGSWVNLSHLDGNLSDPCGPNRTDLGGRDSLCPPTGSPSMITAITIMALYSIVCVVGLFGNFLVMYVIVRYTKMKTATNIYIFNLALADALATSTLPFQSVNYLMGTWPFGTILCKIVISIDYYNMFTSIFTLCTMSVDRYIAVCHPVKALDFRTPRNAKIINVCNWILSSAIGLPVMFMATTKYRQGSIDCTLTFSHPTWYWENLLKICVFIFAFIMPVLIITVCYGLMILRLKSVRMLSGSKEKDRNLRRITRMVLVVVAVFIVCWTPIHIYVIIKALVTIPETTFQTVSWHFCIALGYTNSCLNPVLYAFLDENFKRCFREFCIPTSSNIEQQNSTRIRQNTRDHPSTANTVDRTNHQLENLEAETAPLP
Chain of D(1A) dopamine receptor (Homo sapiens) (P21728 whole entry): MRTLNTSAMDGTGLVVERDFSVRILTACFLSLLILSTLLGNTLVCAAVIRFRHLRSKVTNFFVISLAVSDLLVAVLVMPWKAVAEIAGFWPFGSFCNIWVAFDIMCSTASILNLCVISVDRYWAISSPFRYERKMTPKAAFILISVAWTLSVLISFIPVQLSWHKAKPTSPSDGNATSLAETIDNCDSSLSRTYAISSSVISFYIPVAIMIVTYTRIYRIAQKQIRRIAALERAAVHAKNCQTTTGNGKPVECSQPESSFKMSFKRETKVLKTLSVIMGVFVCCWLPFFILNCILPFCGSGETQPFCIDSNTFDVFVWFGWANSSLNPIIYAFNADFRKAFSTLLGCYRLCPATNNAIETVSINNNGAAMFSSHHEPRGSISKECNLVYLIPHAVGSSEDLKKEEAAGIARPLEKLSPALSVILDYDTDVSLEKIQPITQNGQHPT

## CCCCN(CCCC)C(=O)CN1[C@H](c2cc(OC)c3c(c2)OCO3)C[C@@H](C(=O)O)[C@@H]1CC(C)(C)CCC
[1]
  inhibition: 12%
[2]
  Activity: inactive
[3]
  inhibition: 14%
[4]
  inhibition: < 10%
[5]
  Activity: inactive
[6]
  Kb: 26.9 µM
[7]
  inhibition: < 10%
[8]
  inhibition: 23%
[9]
  inhibition: < 10%
[10]
  inhibition: < 10%
[11]
  bioavailability: 19.9%
[12]
  inhibition: < 10%
[13]
  inhibition: < 10%
Homo sapiens
  inhibition: 29%
[14]
  inhibition: < 10%
[15]
  inhibition: < 10%
[16]
  inhibition: < 10%
[17]
  Activity: Active
[18]
  Activity: inactive
Rattus norvegicus
  inhibition: 18%
[19]
  inhibition: 17%
[20]
  inhibition: < 10%
